Test results: US20130150399A1, “INHIBITORS OF THE UNFOLDED PROTEIN RESPONSE AND METHODS FOR THEIR USE” (The Board of Trustees of the Leland Stanford Junior …, priority 2006, published 2013)
“And” between values parts separate entries of the source, which are not always exact repeats. Equal values may be shown once.

Assays:
[1] = tested on: PANC1 pancreatic adenocarcinoma cells; test: PANC1 tumor growth in vivo; parameters: species or system nude mice; conditions: 60 mg/kg ip bolus every 48 hours, 5 doses
Method: Dose: 60 mg/kg ip bolus injection every 48 hours. 5 total doses. 5-7 tumors per group. PANC1 pancreatic adenocarcinoma cell line.
PANC1 pancreatic adenocarcinoma cells were implanted subcutaneously into nude mice. Mice were then given a bolus injection of one of the inventive irestatins (1401, 9337, 3611 or 9389) at a dose of 60 mg/kg every 48 hours for a total of 5 doses, with 5-7 tumors being treated per group.

XBP1-luciferase reporter = test: XBP-luciferase reporter high throughput screen / IRE IC50 (tunicamycin + thapsigargin induced); type: cell-based, human
Method: Specifically, HT1080 fibrosarcoma cells stably transfected with the unspliced XBP-1-luciferase reporter construct (3000/well) were plated onto a solid white 384 well microplate with a multidrop dispenser (40 μL per well). The plates were then placed into an automated incubator. After 24 hours of growth, a mixture of tunicamycin (1 μg/ml) and thapsigargin (100 nM) inducers were added, and candidate compounds were then added to the plates. After 24 hours, luciferase reagent (10 μl) was added to each well and the plates were read in a Molecular Devices Analyst GT (0.2 second read per well).
As described above in Example 2, HT1080 fibrosarcoma cells stably expressing the XBP-luciferase reporter were plated in a 384 well microplate (4000 cells/well). After 24 hours, cells were treated with a mixture of tunicamycin (4 μg/ml) and thapsigargin (0.4 μM), followed by the addition of one compound per well (10 μM). We screened a total of 66,000 diverse molecules obtained from Specs, Chembridge and ChemRX. Twenty-four hours post-induction, BriteGlo luciferase substrate (10 μl) was added to each well and the signal intensity determined in a plate reader (0.2 s read per well). […] We retested 431 compounds from the initial screen, and selected 58 compounds for additional analysis, including calculation of IC50 values and inhibition of a CMV-luciferase reporter.
Compounds of the screening library with structural similarity to compound 9389 (see Table 1) have been identified and in some cases further assayed for inhibitory activity. Compounds listed with “IC50” values were assayed secondarily after initially being identified in the high throughput screen. Each value represents a separate calculation of reporter inhibition based upon the high throughput robotic screening platform. The actual IC50 values are calculated and represent an estimate of the potency of each compound. This assay is not considered to be accurate below a concentration of 10 nM. Compounds classified with “mild” activity inhibited the XBP1-luciferase reporter by 10-30%. Compounds classified with “moderate” activity inhibited the XBP1-luciferase reporter by 30-75%. Compounds classified with “potent” activity inhibited the XBP1-luciferase reporter by 75-100%. Compounds classified with “undetected” activity inhibited the XBP1-luciferase reporter by less than 10% under the defined conditions.

XBP-1 splicing = test: Bioluminescence imaging of XBP-1 splicing in HT1080 XBP-1s-luciferase tumors; type: in vivo; conditions: for toxicity: nude mice
Method: Several nude mice were implanted with HT1080 cells stably expressing a XBP-1s-luciferase construct and XBP-1 activation was examined using bioluminescence imaging. Imaging was performed using the In Vivo Imaging System (IVIS, Xenogen Corporation, Alameda, Calif.) in the Stanford Center for Innovation in In Vivo Imaging (SCI3). This device consists of a cooled CCD camera mounted on a light-tight specimen chamber.

[2] = tested on: 5×-UPRE luciferase reporter (XBP-1s); test: 5×-UPRE luciferase reporter assay, HT1080 cells; type: cell-based, human; conditions: Tm alone
Method: (§1) HT1080 cells stably expressing the XBP-luciferase construct were grown in 60 mm dishes to 60-70% confluency. Following hypoxia treatment, cells were washed twice with PBS, lysed in 400 μl 1× reporter lysis buffer (RLB) (Promega, Madison Wis.) for 30 min at 24° C. Lysates (100 μl) were mixed with an equal volume of luciferase substrate (Promega), and assayed using a luminometer. For 5×-UPRE-luciferase reporter assays, cells were co-transfected with the appropriate reporter plasmid and a control plasmid (pSV40-beta-gal) using Lipofectamine 2000 (Invitrogen, San Diego, Calif.). Twenty-four hours after transfection, fresh media was added, and cells were treated with Tm or shifted to hypoxia. After treatment, cells were lysed in 1×RLB and analyzed for luciferase activity as described above. Beta-galactosidase activity was determined using the beta-galactosidase enzyme assay system (Promega).
A. XBP-luciferase reporter construct. Firefly luciferase was inserted downstream of the IRE1α splice site in human XBP-1 to enable the conditional translation of luciferase under ER stress in an IRE1α-dependent manner. B. Selective inhibition of the XBP-luciferase reporter by irestatin 9389. HT1080 human fibrosarcoma cells stably expressing the XBP-luciferase reporter or CMV-luciferase were cultured in the presence of Tm (4 μg/ml) and Tg (0.4 μM) and irestatin 9389 at the indicated concentrations. After 24 hours, luciferase activity was analyzed in an automated plate reader. For each cell line, values are expressed as the percent inhibition of the median for Tm/Tg-treated wells, corrected for background. C. Structure of irestatin 9389. […] Values are expressed as the fold increases over uninduced levels. […] Cells were harvested, lysed, and analyzed by immunoblotting with antisera specific for HIF-1α (top), XBP-1s (middle) or actin (bottom). […] Total RNA was analyzed by Northern blotting using radiolabeled probes specific for P58^IPK or DER-1. […]
Since these assays employed a chimeric XBP-luciferase substrate, we next determined whether irestatin 9389 could inhibit the function of endogenous XBP-1s. […]

Grp78 = test: Western immunoblot of Grp78, HT1080 cells; type: cell-based, human; conditions: Tm (5 μg/ml) for 8 hours, positive control
Method: Cells (2×10^6) were cultured in 10-cm dishes, collected using a cell scraper at 4° C., and lysed by addition of 150 μl cell lysis buffer [50 mM Tris pH 7.4, 150 mM NaCl, 10% glycerol, 0.5% Triton X-100. 0.5% NP-40, 2 mM Na3VO4, 20 mM beta-glycerophosphate, 10 mM NaF, 1 mM DTT, 1 mM PMSF). Lysates were centrifuged for 5 min at 10,000×g, and proteins (˜40 μg) were resolved by SDS-PAGE followed by semi-dry transfer to nitrocellulose membranes. Membranes were blocked in TBS-5% milk supplemented with 0.1% Tween-20. The blots were then probed overnight with relevant antibodies, washed, and incubated for 2 hours with species-specific secondary antibodies conjugated to horseradish peroxidase. After washing in block solution, immunoreactive material was detected by enhanced chemiluminescence (SuperSignal West Dura Extended, Pierce, Inc., Rockville, Ill.).
HT1080 cells were exposed to DMSO vehicle (lane 1), irestatin 9389 (2.5 μM; lane 2) for 16 hours or Tm (5 μg/ml; lane 3) for 8 hours. Following treatments, cells were harvested, lysed, and analyzed by immunoblotting using anti-Grp78 antibody (top) or anti-actin (bottom) as a loading control. […] Cell lysates were analyzed by Western immunoblotting using anti-IRE1α (bottom) or anti-phospho-IRE1α antibodies (top). […] Lysates were analyzed by Western blot using antisera specific for phospho-JNK1 (top) or total JNK1 (bottom). […]

XBP-luciferase reporter = XBP-luciferase reporter assay under Tm or hypoxia, HT1080 cells; type: cell-based, human; conditions: Tm alone, 24 hours
Method: as §1
A. XBP-luciferase reporter construct. Firefly luciferase was inserted downstream of the IRE1α splice site in human XBP-1 to enable the conditional translation of luciferase under ER stress in an IRE1α-dependent manner. B. Selective inhibition of the XBP-luciferase reporter by irestatin 9389. HT1080 human fibrosarcoma cells stably expressing the XBP-luciferase reporter or CMV-luciferase were cultured in the presence of Tm (4 μg/ml) and Tg (0.4 μM) and irestatin 9389 at the indicated concentrations. After 24 hours, luciferase activity was analyzed in an automated plate reader. For each cell line, values are expressed as the percent inhibition of the median for Tm/Tg-treated wells, corrected for background. C. Structure of irestatin 9389. D. XBP-luciferase reporter assay. HT1080 cells stably expressing the XBP-luciferase reporter were exposed to Tm (4 μg/ml) for 24 hours or hypoxia (0.1% oxygen) for 24 or 48 hours, in the presence of DMSO or irestatin 9389 (1 μM) as indicated. Values are expressed as the fold increases over uninduced levels. E. 5×-UPRE reporter assay. HT1080 cells were co-transfected with 5×-UPRE luciferase and SV40-beta-gal reporter plasmids, followed by exposure to Tm or hypoxia as in D. For each condition, luciferase activity is normalized to beta-galactosidase expression levels as an internal control for transfection efficiency. F. Western immunoblot analysis of XBP-1s. HT1080 cells were left untreated (lane 2) or exposed to Tm (4 μg/ml) for 20 hours in the presence of DMSO vehicle (lane 1) or the indicated irestatins (2 μM; lanes 3-6). […] Cells were harvested, lysed, and analyzed by immunoblotting with antisera specific for HIF-1α (top), XBP-1s (middle) or actin (bottom). […] Total RNA was analyzed by Northern blotting using radiolabeled probes specific for P58^IPK or DER-1. […]

In the case of `CN1CCN(c2ccc3sc4ccccc4c(=O)c3c2)CC1` [Compound 1401], the tumor growth [1] is reported as “significant tumor growth was observed in untreated mice, but not in mice treated with the irestatins”.
For `Cc1cccc(NC(=O)c2sc3nc(C)cc(C(F)(F)F)c3c2N)n1` [Compound 2750], the “% Inh” value (XBP1-luciferase reporter; Assay HTS, Conc 10 uM) was 16.6%.
With `Nc1ccc(-c2ccc(-c3ccc(N)cc3)c(N)c2)cc1` [Compound 3281] the toxicity (XBP-1 splicing; 50 mg/kg IP) was “no apparent toxicity”, the “XBP-1 splicing activity (bioluminescence)” value (XBP-1 splicing; 50 mg/kg IP, 8 hrs after injection) was “undetectable” and the “XBP-1 splicing (bioluminescence)” value (XBP-1 splicing; 8 hrs after a second injection) was “again inhibited”.
For `Cc1cc2nc(NC(=O)CCCC(=O)O)sc2cc1C` [Compound 3611], the tumor growth [1] was “significant tumor growth was observed in untreated mice, but not in mice treated with the irestatins”.
With `Cc1csc(NC(=O)c2sc3nc4c(c(C(F)(F)F)c3c2N)CCCC4)n1` [Compound 4335] the “% Inh” value (XBP1-luciferase reporter; Assay IRE IC50, Conc 20 uM) was 70.4%.
In the case of `Cc1csc(NC(=O)c2sc3nc4c(c(C(F)(F)F)c3c2N)CCC4)n1` [Compound 5500], the “% Inh” value (XBP1-luciferase reporter; Assay IRE IC50, Conc 20 uM) is reported as 104.4%, the toxicity (XBP-1 splicing; 50 mg/kg IP) is reported as “no apparent toxicity” and the “effect on XBP-1 splicing (bioluminescence)” value (XBP-1 splicing; 50 mg/kg IP, at the time points assayed) is reported as “did not have any affect on XBP-1 splicing”.
With `N#Cc1cccc(NC(=O)c2sc3nc4c(c(C(F)(F)F)c3c2N)CCC4)c1` [Compound 8878] the “% Inh” value (XBP1-luciferase reporter; Assay IRE IC50, Conc 20 uM) was 72.4% and 50.0%.
In the case of `Cc1cn2cc(-c3ccc4ccccc4c3)nc2s1` [Compound 9337], the tumor growth [1] is reported as “significant tumor growth was observed in untreated mice, but not in mice treated with the irestatins”.
tunicamycin [Tm, reference compound] was tested, and the “increase of 5×-UPRE luciferase activity over untreated cells” value [2] was about 12 fold, the Grp78 levels (Grp78) was “robustly induced Grp78” and the “increase of XBP-luciferase activity” value (XBP-luciferase reporter) was 60 fold.
